Experimental data taken from patent US5731334A, “Method for treating cancer using taxoid onium salt prodrugs” (priority 1995, dated 1998).

Columns and labels:
tubulin = experiment: Tubulin polymerization-depolymerization (microtubule assembly-disassembly) assay; assay type: biochemical, calf; conditions: CaCl2, 10^-6 M drug, 37° C., in words
[1] = test system: M-24 metastatic melanoma cells; experiment: XTT dye binding cytotoxicity assay, M-24; assay type: cell-based; conditions: Homo sapiens, M24; M-24, melanoma-metastatic; 72 h; read-out: IC50
Experimental: (§1) All cell lines described herein were obtained from the ATCC and maintained in media formulations as recommended by the supplier. The cell lines were tested for mycoplasma contamination prior to incubation at 37° C. in 5% carbon dioxide. Normal human dermal fibroblasts, peripheral blood lymphoblasts and mammary epithelial cells were obtained from Clonogenic Cor., San Diego, Calif. and were maintained under the above incubation conditions in special media provided by the supplier.
(§2) Antiproliferative activities of the onium salts were determined using the XTT dye binding assay. Cells were harvested with trypsin/EDTA (Irvine Scientific), washed, resuspended in the appropriate medium, and counted in a hemocytometer using Trypan Blue to determine viability. Then 10^4 cells/well were added to 96 well microtiter plates and incubated for 24 hours before addition of drug at concentrations in the range of 10^-4 to 10^-13 molar by direct addition from DMSO solutions. After 72 hours, XTT binding dye was added and incubation was continued for 4 hours. The inhibition of cell proliferation was quantified using a Molecular Devices Microplate Reader. The absorbance of XTT was measured at […]. The concentration of drug which inhibited growth of cells by 50% was calculated from duplicated determinations.

SK-Mel-28 melanoma cells = experiment: XTT dye binding cytotoxicity assay, SK-Mel-28; assay type: cell-based; conditions: Homo sapiens; SK-Mel-28, melanoma; 72 h; read-out: IC50
Experimental: as §1, §2

[2] = test system: A-549 lung carcinoma cells; experiment: XTT dye binding cytotoxicity assay, A-549; assay type: cell-based; conditions: Homo sapiens, A549; A-549, lung carcinoma; 72 h; read-out: IC50
Experimental: as §1, §2

[3] = test system: UCLA-P3 lung carcinoma cells; experiment: XTT dye binding cytotoxicity assay, UCLA-P3; assay type: cell-based; conditions: Homo sapiens, UCLA P-3; UCLA-P3, lung carcinoma; 72 h; read-out: IC50
Experimental: as §1, §2

[4] = test system: BT-549 breast carcinoma cells; experiment: XTT dye binding cytotoxicity assay, BT-549; assay type: cell-based; conditions: Homo sapiens; BT-549, breast carcinoma; 72 h; read-out: IC50
Experimental: as §1, §2

U-2511 CNS cancer cells = experiment: XTT dye binding cytotoxicity assay, U-2511; assay type: cell-based; conditions: Homo sapiens; U-2511, CNS cancer; 72 h; read-out: IC50
Experimental: as §1, §2

[5] = test system: Capan 1 pancreas cancer cells; experiment: XTT dye binding cytotoxicity assay, Capan 1; assay type: cell-based; conditions: Homo sapiens; Capan 1, pancreas cancer; 72 h; read-out: IC50
Experimental: as §1, §2

[6] = test system: HT-29 colon carcinoma cells; experiment: XTT dye binding cytotoxicity assay, HT-29; assay type: cell-based; conditions: Homo sapiens; HT-29, colon carcinoma; 72 h; read-out: IC50
Experimental: as §1, §2

[7] = test system: OVCAR-3 ovarian carcinoma cells; experiment: XTT dye binding cytotoxicity assay, OVCAR-3; assay type: cell-based; conditions: Homo sapiens; OVCAR-3, ovarian carcinoma; 72 h; read-out: IC50
Experimental: as §1, §2

[8] = test system: SIHA squamous carcinoma cells; experiment: XTT dye binding cytotoxicity assay, SIHA; assay type: cell-based; conditions: Homo sapiens; SIHA, squamous carcinoma; 72 h; read-out: IC50
Experimental: as §1, §2

[9] = test system: SK-N-SH neuroblastoma cells; experiment: XTT dye binding cytotoxicity assay, SK-N-SH; assay type: cell-based; conditions: Homo sapiens, neuroblastoma, 72 h, read-out: IC50
Experimental: as §1, §2

[10] = test system: 786-0 renal cell carcinoma cells; experiment: XTT dye binding cytotoxicity assay, 786-0; assay type: cell-based; conditions: Homo sapiens; 786-0, renal cell carcinoma; 72 h; read-out: IC50
Experimental: as §1, §2

[11] = test system: PC-3 prostate carcinoma cells; experiment: XTT dye binding cytotoxicity assay, PC-3; assay type: cell-based; conditions: Homo sapiens, 72 h
Experimental: as §1, §2

[12] = test system: Molt-4 T-cell leukemia cells; experiment: XTT dye binding cytotoxicity assay, Molt-4; assay type: cell-based; conditions: Homo sapiens; Molt-4, T-cell leukemia; 72 h; read-out: IC50
Experimental: as §1, §2

[13] = test system: HL-60 promyelocytic leukemia cells; experiment: XTT dye binding cytotoxicity assay, HL-60; assay type: cell-based; conditions: Homo sapiens; HL-60, promyelocytic leukemia; 72 h; read-out: IC50
Experimental: as §1, §2

L-1210 leukemia cells = experiment: XTT dye binding cytotoxicity assay, L-1210; assay type: cell-based, mouse; conditions: L1210; L-1210, mouse leukemia; 72 h; read-out: IC50
Experimental: as §1, §2

[14] = test system: CHO Chinese hamster ovary cells; experiment: XTT dye binding cytotoxicity assay, CHO; assay type: cell-based; conditions: Cricetulus griseus; CHO, Chinese hamster ovary (untransformed); 72 h; read-out: IC50
Experimental: as §1, §2

[15] = test system: HMEC mammary epithelial cells; experiment: XTT dye binding cytotoxicity assay, HMEC; assay type: cell-based; conditions: Homo sapiens, mammary epithelial cells (untransformed), 72 h, read-out: IC50
Experimental: as §1, §2

NHDF dermal fibroblast = experiment: XTT dye binding cytotoxicity assay, NHDF; assay type: cell-based; conditions: Homo sapiens, dermal fibroblast (untransformed), 72 h, read-out: IC50
Experimental: as §1, §2

[16] = test system: RPMI-7666 blood lymphoblasts; experiment: XTT dye binding cytotoxicity assay, RPMI-7666; assay type: cell-based; conditions: Homo sapiens; RPMI-7666, blood lymphoblasts (untransformed); 72 h; read-out: IC50
Experimental: as §1, §2

human tumor xenografts = experiment: In vivo antitumor effect (human tumor xenografts in nude mice)
[17] = Stability in water, assay medium and storage solution; assay type: physicochemical
Description: used and differing ultraviolet absorption maxima between the prodrug and the drug, the stability was easily assayed using UV detection. In all the ensuing studies, the only degradation products detected were the taxoids and the pyridinone that results from the hydrolysis of the onium salts. In water, these compounds show surprising stability for up to weeks depending upon the storage conditions. […] The fraction of ethyl acetated extractable material was between 18 and 23% for all onium salts and 95% for the present compounds.
FIG. 2 illustrates the results of GTP induced polymerization and calcium chloride induced depolymerization of tubulin in the presence of taxol and the 2'- and 7-MPA substituted derivatives.

tumor cell lines = experiment: Cytotoxicity, summary over tumor cell lines (XTT); assay type: cell-based, human and murine
Experimental: Antiproliferative activities of the onium salts were determined using the XTT dye binding assay. Cells were harvested with trypsin/EDTA (Irvine Scientific), washed, resuspended in the appropriate medium, and counted in a hemocytometer using Trypan Blue to determine viability. […] After 72 hours, XTT binding dye was added and incubation was continued for 4 hours. The inhibition of cell proliferation was quantified using a Molecular Devices Microplate Reader. […] The concentration of drug which inhibited growth of cells by 50% was calculated from duplicated determinations.

[18] = test system: PC-3 prostate carcinoma tumor xenograft; experiment: PC-3 prostate tumor xenograft in nude mice
Experimental: (§3) Athymic nude mice were purchased from Harlan-Sprague-Dawley. The animals were housed in microisolated cases under positive air pressure and all manipulations and drug treatments were performed in a laminar flow cabinet. Tumor cells were grown under the above tissue culture conditions. Cell suspensions in RPMI medium were injected S./C. Treatment was started one day after inoculation by i.p. injection of 400 μl drug solutions. Tumors were measured 3 times weekly in two dimensions, using calipers and tumor volume as calculated using the formula (V=w^2 ×L×(3.142).
The tumor model was generated from an ATTC PC-3 prostate carcinoma cell line that was maintained under standard cell proliferation conditions, viz. 37° C., 5% carbon dioxide in sterile air. Each cohort was comprised of eight randomly chosen female athymic nude mice, for a total population size of twenty four. Hemocytometer counted cells, suspended in Hanks mediun (Gibco, Grand Island N.Y.) were implanted S.C. (10^6 cells in 0.4 mL per mouse). Solid tumor growth was measured on each third day. Equimolar amounts of the test compounds (1.0 mM, 400 μL) were injected i.p. on days 1, 3, 5, 7, 9, and 11 using the following media:
(.smallcircle.): Control, 5% dextrose in 5× distilled water (5 DW)
(Δ): Taxol (18.0 mg/kg of animal weight or approximately 1.260 mg/m^2) suspended in Cremaphor/D5W
Inferences about efficacy were drawn by ANOVA followed by protected t-test. […] Data shown as mean value with standard error.

[19] = Toxicity and survival in vivo (tumor bearing nude mice); conditions: for Toxicity: Table II, in vivo; for % survival: at end of experiments
[20] = Plasma stability and prodrug reversion (ethyl acetate extraction, HPLC); conditions: human, plasma
in vitro = conditions: human, plasma
[21] = Comparative toxicities (lethality) in mice
[22] = test system: A549 lung adenocarcinoma tumor xenograft; experiment: Human lung adenocarcinoma A549 xenograft in nude mice; conditions: 1.0 mM, 400 μL i.p. days 1, 3, 5, 7, 9, 11
Experimental: as §3
The tumor model was generated from A549 cell line, an ATTC that was maintained under standard cell proliferation conditions (37° C., 5% carbon dioxide in sterile air). Each cohort was comprised of six randomly chosen female athymic nude mice, for a total population size of twenty four mice. Hemocytometer counted cells, suspended in Hanks mediun (Gibco, Grand Island N.Y.) were implated S.C. (10^6 cells in 0.4 mL per mouse). Solid tumor growth was measured on each third day. Equimolar amounts of the test compounds (1.0 mM, 400 μL) were injected i.p. on days 1, 3, 5, 7, 9, and 11 using the following media:
(Δ): Control, saline in 5× distilled water (5 DW)
(.smallcircle.): Taxol (18.0 mg/kg of animal weight or approximately 1,260 mg/m^2) suspended in Cremaphor/D5W […]

SMILES	inhibition of calcium chloride induced depolymerization of microtubules (tubulin)	IC50 [1] [nM]	IC50 (SK-Mel-28 melanoma cells) [nM]	IC50 [2] [nM]	IC50 [3] [nM]	IC50 [4] [nM]	IC50 (U-2511 CNS cancer cells) [nM]	IC50 [5] [nM]	IC50 [6] [nM]	IC50 [7] [nM]	IC50 [8] [nM]	IC50 [9] [nM]	IC50 [10] [nM]	IC50 [13] [nM]	IC50 (L-1210 leukemia cells) [nM]	IC50 [14] [nM]	IC50 [15] [nM]	IC50 (NHDF dermal fibroblast) [nM]	IC50 [16] [nM]	Toxicity [19]	further results
CC(=O)O[C@H]1C(=O)[C@@]2(C)[C@H]([C@H](OC(=O)c3ccsc3)[C@]3(O)C[C@H](OC(=O)[C@H](O)[C@@H](NC(=O)c4ccccc4)c4ccccc4)C(C)=C1C3(C)C)[C@]1(OC(C)=O)CO[C@@H]1C[C@@H]2O [C-2-substituted thiophene derivative]	inhibited depolymerization similar to taxol	–	–	–	–	–	–	–	–	–	–	–	–	–	–	–	–	–	–	–	–
CC(=O)O[C@H]1C(=O)[C@]2(C)[C@@H](Oc3cccc[n+]3C)C[C@H]3OC[C@@]3(OC(C)=O)[C@H]2[C@H](OC(=O)c2ccccc2)[C@]2(O)C[C@H](OC(=O)[C@H](O)[C@@H](NC(=O)c3ccccc3)c3ccccc3)C(C)=C1C2(C)C [Compound 3]	as effective as taxol in inhibiting calcium induced microtubule disassembly	0.62	702	42.5	12.8	140	170	34.5	35.3	84.2	8.79	19.6	454	5.85	178	612	81	85.5	123	low	IC50 [11]: 70.7 nM; IC50 [12]: 9.94 nM; inhibition of calcium chloride induced depolymerization of microtubules (tubulin; listed as 7-MPA salt): essentially complete inhibition of depolymerization; inhibition of calcium chloride induced depolymerization of microtubules (tubulin; listed as taxol-7-MPA): suppressed by taxol and taxol-7-MPA; in vivo antitumor efficacy in words (human tumor xenografts): completely failed to inhibit the growth of these tumors in nude mice; stability under the assembly-disassembly conditions ([17]; HPLC analysis): completely stable; cytotoxicity in words (tumor cell lines): cytotoxicities comparable to taxol on human tumor cell lines; antitumor activity, PC-3 ([18]; 1.0 mM, 400 μL i.p., established tumors): essentially no antitumor activity; mice surviving treatment, PC-3 ([18]; in vivo): all of the mice given either the 2'- or 7-isomers survived; % survival [19]: 100%; half-life [20]: 180 min; recovery [20]: 20%
CC(=O)O[C@H]1C(=O)[C@@]2(C)[C@H]([C@H](OC(=O)c3ccsc3)[C@]3(O)C[C@H](OC(=O)[C@H](Oc4cccc[n+]4C)[C@@H](NC(=O)c4ccccc4)c4ccccc4)C(C)=C1C3(C)C)[C@]1(OC(C)=O)CO[C@@H]1C[C@@H]2O [Compound 4]	behaved in this assay similar to the C-2'-MPA isomer of taxol (2)	0.54	110	2.35	1.88	0.11	31.7	0.35	0.99	0.86	7.55	4.18	11.5	0.12	1.2	815	219	655	408	low	IC50 [11]: 1.15 nM; IC50 [12]: 0.066 nM; half-life (in vitro): 14 min; recovery (in vitro): 23%; % survival [19]: 100%
CC(=O)O[C@@]12CO[C@@H]1C[C@H](O)[C@@]1(C)C(=O)[C@H](O)C3=C(C)[C@@H](OC(=O)[C@H](O)[C@@H](NC(=O)OC(C)(C)C)c4ccccc4)C[C@@](O)([C@@H](OC(=O)c4ccccc4)[C@H]21)C3(C)C [Compound 5, N-debenzoyl-N-tert-butoxycarbonyl-10-deacetyl Taxol, reference compound]	–	0.017	614	0.8	0.12	–	21	0.011	0.84	0.11	1.56	0.65	41.5	0.035	0.59	80	32.9	65	71.2	–	50% lethality and toxicities, in words ([21]; conventional formulation, relative to taxol): 50% lethality and toxicities at generally lower dosages as compared to taxol
CC(=O)O[C@@]12CO[C@@H]1C[C@H](O)[C@@]1(C)C(=O)[C@H](O)C3=C(C)[C@@H](OC(=O)[C@H](Oc4cccc[n+]4C)[C@@H](NC(=O)OC(C)(C)C)c4ccccc4)C[C@@](O)([C@@H](OC(=O)c4ccccc4)[C@H]21)C3(C)C [Compound 6]	–	–	68.2	0.72	19.9	0.065	0.61	0.59	3.08	81.8	4.12	7.34	0.56	0.89	0.019	292	56	1.59	596	–	storage stability ([17]; 1-2% Tween #80 or Tween #20 with or without ethyl alcohol): stable and may stored without significant loss; Toxicity ([21]; mouse, in vivo): minimal toxicity; lethality ([21]; mouse, in vivo): no lethality; half-life [20]: 0.9 min; recovery [20]: 18%
CC(=O)O[C@H]1C(=O)[C@@]2(C)[C@H]([C@H](OC(=O)c3ccccc3)[C@]3(O)C[C@H](OC(=O)[C@H](OC(=O)CS(=O)(=O)C(=O)O)[C@@H](NC(=O)c4ccccc4)c4ccccc4)C(C)=C1C3(C)C)[C@]1(OC(C)=O)CO[C@@H]1C[C@@H]2O [Compound 7]	–	–	–	–	–	–	–	–	–	–	–	–	–	–	–	–	–	–	–	low	in vivo antitumor efficacy in words (human tumor xenografts): completely fails to exhibit any antitumor effects in vivo; cytotoxicity in words (tumor cell lines): high cytotoxicity profile; tumor growth inhibition, A549 [22]: no significant growth inhibition; % survival [19]: 75%; half-life [20]: 100 min; recovery [20]: 34%
